Laboratory results taken from patent US8778906B2, “Modulation of line-1 reverse transcriptase” (ALT Solutions, Inc., priority 2003, dated 2014).

Columns and labels:
Saos-2 cells = assay: AZT treatment of ALT cells, flow cytometry for telomere length (PNA probe) and cell cycle (PI); assay type: cell-based, human; details: Saos-2, 0.2 μM AZT, 14 days
Procedure: (§1) Telomere length in AZT treated and untreated cell lines was measured by flow cytometry with a telomere-specific peptide nucleic acid (PNA) probe^22,23. To determine cell cycle distribution, cells were stained with propidium iodide (PI)^22. […] AZT at the chosen concentration had no effect on telomere length or cell cycle distribution in the HeLa cells (not shown).
(§2) Cell lines: All cell lines used in this study were obtained from American Type Culture Collection (Rockville, Md.). The cells origins included osteosarcoma (Saos-2 and U-2 OS), liver ([…]) and uterine cervix (HeLa). Cells were cultured following ATCC recommendation. For treatment of the cells with AZT, the media was supplemented with 0.2 μM of 3′-azido-2′,3′-dideoxythymidine (Sigma)^28.
(§3) Telomere length measurement by flow cytometry: Cell were stained with telomere specific FITC conjugated (C3TA2)3 PNA (Applied Biosystems) probe and contrastained with 0.06 μg/ml PI as described^21.

U-2 OS cells = assay: as above; assay type: cell-based, human
Procedure: as §1
Rate of DNA synthesis was determined by incorporation of 5-bromodeoxyuridine (BdU)^24.
as §2, §3

[1] = system: WM1175 (malignant melanoma) or HUT292DM (lung cancer) cells; assay: Telomerase-positive xenograft tumors in immunodeficient mice treated with AZT; assay type: in vivo; details: AZT at the dose tested (total daily dose 10 mg/kg)
Procedure: After induction of tumors, mice in the experimental groups may be treated with AZT. Mice may be injected i.p. twice a day with solution of AZT in PBS with a total daily dose of 10 mg/kg. Mice in control group may be injected with PBS. Alternatively, AZT at the same daily dose may be given in drinking water. […] As a separate set of controls, telomerase-positive tumors in nude mouse may be induced by injecting the immunodeficient mice with WM1175 (malignant melanoma) or HUT292DM (lung cancer) cells instead of the transformed IIICF/c fibroblast cells.

`Cc1cn([C@H]2C[C@H](N=[N+]=[N-])[C@@H](CO)O2)c(=O)[nH]c1=O` [AZT, 3′-azido-2′,3′-dideoxythymidine] was tested, and the apoptosis (Saos-2 cells) was “massive apoptosis”, the telomere length (Saos-2 cells) was “telomere shortening” and the cell cycle distribution (Saos-2 cells; PI staining) was “G2 arrest”. The “DNA content (PI staining)” value (U-2 OS cells; AZT treated cells at later stages of treatment, compared to untreated cells) was “higher DNA content”, the “time of AZT treatment after which changes in cell cycle distribution, DNA synthesis and telomere length could be detected” value (U-2 OS cells; U-2 OS, 0.2 μM AZT) was 10 days and the apoptosis (U-2 OS cells; U-2 OS, 0.2 μM AZT, 14 days) was “massive apoptosis”. For the same molecule, the telomere length (U-2 OS cells; U-2 OS, 0.2 μM AZT, 14 days) was “telomere shortening”, the cell cycle distribution (U-2 OS cells; U-2 OS, 0.2 μM AZT, 14 days, PI staining) was “G2 arrest” and the “inhibition of telomerase-positive tumors” value [1] was “cannot be inhibited”.
